{"source": "patent US20010012631A1", "about": "“Plant clonal lines and plants having elevated secondary metabolite levels” (University of Massachusetts Medical Center, a Massachusetts …, priority 1997, published 2001)", "key": {"rosemary clonal line R-7": {"tested_on": "rosemary clonal line R-7", "assay": "RA content of shoot propagules, rosemary clonal line R-7", "type": "cell-based", "details": "rosemary R-7, A2C 200 μM, 30 to 45 days; ± SD", "protocol": "(§1) Samples of Pseudomonas-treated and untreated control shoots from each line were assayed for rosmarinic acid content and proline content. Rosmarinic acid was extracted from 50 mg of fresh shoot tissue using 2 ml of 50% (v/v) methanol and incubating for 1 hour at 55° C. One ml of the methanol extract was diluted 1:18 and the absorbance of the diluted extract was measured at 333 nm in a Genesys spectrophotometer (Spectronic Instruments, Rochester, N.Y.). The concentration of RA in the extract was calculated using an extinction coefficient of ε333=19,000 τmol^−1cm^−1. Values for the concentration of RA for each treatment/clonal line shown in the Tables and Figures of this application are the average of at least 5 separate extracts. Total rosmarinic acid content was expressed as % g/g fresh weight (FW) of tissue.\n(§2) Three clonal thyme lines and five rosemary clonal lines were isolated and maintained in culture as described in U.S. application Ser. No. 08/771,241, filed Dec. 20, 1996 and incorporated herein by reference.\n(§3) Individual shoot propagules of each clonal line were transferred to half-strength hormone-free MS media supplemented with A2C and cultured for 30 to 45 days. RA content and morphological abnormalities were determined at the end of the culture period as described in Example 1."}, "[1]": {"tested_on": "rosemary clonal line R-15", "assay": "RA content of shoot propagules, rosemary clonal line R-15", "type": "cell-based", "details": "30 to 45 days", "protocol": "as §1, §2, §3"}, "[2]": {"tested_on": "rosemary clonal line R-16", "assay": "RA content of shoot propagules, rosemary clonal line R-16", "type": "cell-based", "details": "30 to 45 days", "protocol": "as §1, §2, §3"}, "[3]": {"tested_on": "rosemary clonal line R-35", "assay": "RA content of shoot propagules, rosemary clonal line R-35", "type": "cell-based", "details": "30 to 45 days, ± SD", "protocol": "as §1, §2, §3"}, "[4]": {"tested_on": "Glucose-6-phosphate dehydrogenase (G-6-PDH)", "type": "cell-based, oregano", "details": "A2C 50 μM", "protocol": "(§4) These enzymes are involved in synthesis of phenolic secondary metabolites (PAL) and in the pentose phosphate pathway (G-6-PDH).\n(§5) One gm fresh weight of leaves were ground to a powder in liquid nitrogen, and homogenized in 0.1 M Tris-HCl buffer (pH 7.4) containing 1 mM phenylmethyl-sulfonyl fluoride (PMSF), 0.1% polyvinylpyrrolidone (PVP, to remove phenolics and polysaccharides) and 1 mM dithiothreitol (DTT). Extracts were centrifuged at 15,000×g for 20 minutes, and supernatants (5 ml) were partially purified through a PD 10 column (Pharmacia, Inc., NJ). Protein was eluted from the column using 5 ml of 0.1 M Tris-HCl, pH 8.5, which is close to the pH optimum of plant glucose-6-phosphate dehydrogenase (pH 8.0-8.2) and PAL (pH 8.8).\nGlucose-6-phosphate dehydrogenase activity in the protein extract was measured spectrophotometrically by following the change in absorbance at 340 nm in the presence of saturating amounts of glucose-6-phosphate (2mM) and NADP (5 μM) in 0.1 M Tris-HCl, pH 8.0. One unit of glucose-6-phosphate dehydrogenase was defined as the amount of enzyme causing the reduction of 1 μmol of NADP^+ per minute. Specific activity was expressed as units per milligram of protein."}, "[5]": {"tested_on": "phenylalanine ammonia lyase (PAL)", "type": "cell-based, oregano", "details": "A2C 50 μM", "protocol": "as §4, §5\nPhenylalanine ammonia-lyase (PAL) activity in the protein extract was assayed based on the conversion of L-phenylalanine (6.67 mM) to trans cinnamic acid. The reaction was carried out at 30° C. in borate buffer (33 mM), pH 8.8 with L-phenylalanine as substrate and the change in absorbance at 290 nm was measured. PAL was expressed as nanomoles of trans-cinnamic acid formed per minute per milligram of protein. Protein was determined by the Bradford dye-binding method using bovine serum albumin as a standard."}, "oregano clonal line 0-4": {"tested_on": "oregano clonal line 0-4", "assay": "Morphological abnormalities / tolerance of cultured shoots, oregano line 0-4", "type": "cell-based", "details": "line 0-4 cultured in the presence of 100 μM azetidine-2-carboxylic acid", "protocol": "(§6) Pseudomonas tolerance of Pseudomonas-treated shoots was determined by visual observation with a stereomicroscope (Olympus-SZ40, Tokyo, Japan) at a magnification of 34X. Cultured shoots were evaluated for morphological abnormalities, including malformation, necrosis, and chlorophyll deficiency. The response of individual tissue propagules to Pseudomonas contact was similar within each line, i.e., there was little or no variation among tissue propagules within each line.\n(§7) Shoot tissue from oregano lines 0-4 and 0-5 was also cultured in the presence of A2C for 30 days. Samples of treated and control shoots were then assayed for RA content on a fresh weight basis and for morphological abnormalities."}, "oregano clonal line 0-5": {"tested_on": "oregano clonal line 0-5", "assay": "Morphological abnormalities / tolerance of cultured shoots, oregano line 0-5", "type": "cell-based", "details": "line 0-5, 200 μM A2C", "protocol": "as §6, §7\n(§8) Individual shoot tissue propagules of each clonal line were transferred to half strength hormone-free MS medium supplement with A2C. RA content and morphological abnormalities were determined as described in Example 1."}, "oregano clonal line OM-8": {"tested_on": "oregano clonal line OM-8", "assay": "Morphological abnormalities / tolerance of cultured shoots, oregano line OM-8", "type": "cell-based", "details": "line OM-8, 200 μM A2C", "protocol": "as §6, §8"}, "thyme clonal line M-3": {"tested_on": "thyme clonal line M-3", "assay": "Morphological abnormalities / tolerance of cultured shoots, thyme line M-3", "type": "cell-based", "details": "thyme line M-3, 200 μM A2C", "protocol": "as §6, §3"}, "rosemary clonal line R-1": {"tested_on": "rosemary clonal line R-1", "assay": "Morphological abnormalities / tolerance of cultured shoots, rosemary line R-1", "type": "cell-based", "details": "rosemary line R-1, 200 μM A2C", "protocol": "as §6, §3"}, "oregano clonal lines [6]": {"tested_on": "oregano clonal lines", "assay": "Selection for A2C tolerance: RA content of about 100 oregano clonal lines", "type": "cell-based", "details": "small fraction of about 100 oregano lines, 200 μM A2C, 30 days", "protocol": "as §1\n(§9) About 100 oregano clonal lines are initiated as described in Example 1. Lines are maintained on MS medium containing BAP as described in Example 1. At the end of a subculture cycle, 50 shoot propagules of each clonal line are transferred to half-strength hormone-free MS medium containing 200 μM A2C. Propagules are then cultured for 30 days as described in Example 1, and assayed for RA content as described in Example 1. Total phenolic content is measured as described in U.S. application Ser. No. 08/771,241, filed Dec. 20, 1996, incorporated herein by reference."}, "oregano clonal lines [7]": {"tested_on": "oregano clonal lines", "assay": "Selection for A2C tolerance: total phenolic content of about 100 oregano clonal lines", "type": "cell-based", "details": "small fraction of about 100 oregano lines, 200 μM A2C, 30 days", "protocol": "Total phenolic content can be measured, for example, using Folin-Ciocalteu reagent essentially as described in Chandler and Dodds, Plant Cell Rep. 2:105-108 (1983) and Shetty, K., Ph.D., Thesis, University of Idaho (1989). The tissue is disrupted in 95% ethanol and centrifuged to remove particulate matter. An aliquot of the ethanol supernatant is mixed with an equal volume of Folin-Ciocalteu reagent, and incubated at 25° C. A 5% sodium carbonate can be added to stabilize color development. Absorbance of the solution is measured at 725 nm is a spectrophotometer. A standard curve is developed using various concentrations of gallic acid in 95% ethanol. Absorbance values are converted to mg total phenolics/g fresh weight (FW) tissue from the standard curve.\nas §9"}, "[8]": {"tested_on": "regenerated plants of oregano clone 0-1 and five tolerant clones", "assay": "Field treatment: RA content of leaf tissue of regenerated oregano plants", "type": "in vivo", "details": "field plants sprayed with solution of A2C about 50 μm, Nonidet P40, EMC about 0.5% w/v; leaf tissue after 7 days; fresh weight and dry weight basis", "protocol": "(§10) About 100 regenerated plants of oregano clone 0-1, and the five tolerant clones of Example 7 are removed from a greenhouse, and planted outdoors in a field during the spring, and summer growing season. Plantings are carried out using a randomized block design. Plants are fertilized weekly, but are not irrigated. About 7 days before flower emergence, half of the plants of each line are sprayed with an aqueous solution comprising A2C, Nonidet P40™, and EMC prepared from strain F. A2C is present at about 50 μm, and EMC is present at about 0.5% w/v. Each plant receives about 1 to 2 ml on the upper surface of the leaves. The remaining control plants are treated by spraying an aqueous solution that contains no A2C and no EMC. Spraying is carried out such that there is little or no carryover to adjacent plants.\n(§11) After 7 days, leaf tissue from A2C-treated and control plants is harvested, and analyzed for total phenolic content, and RA content as described in Example 7. […] The plant-to-plant variation among A2C-treated plants of each line is about 5% to about 15%."}, "[9]": {"tested_on": "regenerated plants of oregano clone 0-1 and five tolerant clones", "assay": "Field treatment: total phenolic content of leaf tissue of regenerated oregano plants", "type": "in vivo", "details": "field plants sprayed with solution of A2C about 50 μm, Nonidet P40, EMC about 0.5% w/v; leaf tissue after 7 days; fresh weight and dry weight basis", "protocol": "as §10, §11"}}, "note": "Where two headings read alike, the source gives them in different places.", "data": [{"smiles": "O=C(O)C1CCN1", "note": "(centres unmarked) [A2C, azetidine-2-carboxylic acid]", "values": [{"measurement": "RA Levels", "setting": "rosemary clonal line R-7", "value": "7.9 ± 2.0", "unit": "mg/g FW"}, {"measurement": "RA Levels", "setting": "[1]; rosemary R-15, A2C 100 μM, ± SD", "value": "9.4 ± 0.6", "unit": "mg/g FW"}, {"measurement": "RA Levels", "setting": "[1]; rosemary R-15, A2C 200 μM", "value": "inhibited"}, {"measurement": "RA Levels", "setting": "[2]; rosemary R-16, A2C 100 μM, ± SD", "value": "10.4 ± 1.9", "unit": "mg/g FW"}, {"measurement": "RA Levels", "setting": "[2]; rosemary R-16, A2C 200 μM", "value": "inhibited"}, {"measurement": "RA Levels", "setting": "[3]; rosemary R-35, A2C 100 μM", "value": "12.1 ± 1.4", "unit": "mg/g FW"}, {"measurement": "RA Levels", "setting": "[3]; rosemary R-35, A2C 200 μM", "value": "10.9 ± 0.9", "unit": "mg/g FW"}, {"measurement": "G-6-PDH specific activity", "setting": "[4]; 10 days of culture treatment", "value": "1.47 μmoles NADPH/min/mg protein"}, {"measurement": "G-6-PDH specific activity", "setting": "[4]; 25 days of culture treatment", "value": "1.23 μmoles NADPH/min/mg protein"}, {"measurement": "PAL specific activity", "setting": "[5]; 10 days of culture treatment", "value": "2.83 nanomoles cinnamate/min/mg protein"}, {"measurement": "PAL specific activity", "setting": "[5]; 25 days of culture treatment", "value": "2.64 nanomoles cinnamate/min/mg protein"}, {"measurement": "morphological abnormalities", "setting": "oregano clonal line 0-4", "value": "no morphological abnormalities"}, {"measurement": "survival of line in culture", "setting": "oregano clonal line 0-5", "value": "killed"}, {"measurement": "survival of line in culture", "setting": "oregano clonal line OM-8", "value": "killed"}, {"measurement": "survival of line in culture", "setting": "thyme clonal line M-3", "value": "killed"}, {"measurement": "survival of line in culture", "setting": "rosemary clonal line R-1", "value": "killed"}, {"measurement": "increase in RA content on a fresh weight basis vs tissue cultured in the absence of A2C", "setting": "oregano clonal lines [6]", "value": "at least 2 fold"}, {"measurement": "increase in total phenolic content on a fresh weight basis vs tissue cultured in the absence of A2C", "setting": "oregano clonal lines [7]", "value": "at least 2 fold"}, {"measurement": "RA vs control tissue", "setting": "[8]", "value": "at least 2 fold"}, {"measurement": "total phenolics vs control tissue", "setting": "[9]", "value": "at least 2 fold"}]}]}
